Measured values as given in patent publication US9879036B2, “Mitochondrial aldehyde dehydrogenase-2 binding compounds and methods of use thereof” (Aviv Therapeutics, Inc., priority 2014, dated 2018).

Each molecule was assayed against T1, ALDH2 (Homo sapiens, UniProt P05091) (assay: ALDH2 activity with 20 μM of the compound (Table 3)). Conditions: 20 μM compound.
T1 construct: His-tag (N); made in house; host or cells: E. coli BL21
T1 sequence (P05091 18-517): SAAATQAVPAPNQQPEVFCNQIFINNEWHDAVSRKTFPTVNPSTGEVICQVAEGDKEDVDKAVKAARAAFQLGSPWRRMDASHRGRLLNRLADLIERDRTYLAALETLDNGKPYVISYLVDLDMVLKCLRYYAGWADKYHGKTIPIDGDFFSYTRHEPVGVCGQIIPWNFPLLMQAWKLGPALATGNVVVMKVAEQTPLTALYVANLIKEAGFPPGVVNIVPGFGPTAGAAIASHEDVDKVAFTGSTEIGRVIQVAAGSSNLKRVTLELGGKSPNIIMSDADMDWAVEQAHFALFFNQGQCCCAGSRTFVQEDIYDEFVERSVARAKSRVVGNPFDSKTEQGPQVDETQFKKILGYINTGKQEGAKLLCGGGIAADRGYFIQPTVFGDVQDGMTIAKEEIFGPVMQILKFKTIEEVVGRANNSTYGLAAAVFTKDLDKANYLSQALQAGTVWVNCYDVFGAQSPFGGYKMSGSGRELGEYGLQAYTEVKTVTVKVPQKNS
Assay type: biochemical
Protocol: (§1) ALDH2 catalyzes the oxidative reaction of substrate acetaldehyde to acetic acid using NAD^+ as a cofactor. Enzymatic activity, or catalytic rate, of aldehyde dehydrogenase (ALDH2) are measured spectrophotometrically at UV wavelength λ340 nm by the accumulation of reduced product NADH derived from NAD^+. Absorbance at λ340 nm is quantitatively proportional to the amount of NADH being produced over time (6.22 O.D. unit=1 mmol of NADH, measured in a 1-cm width standard cuvette). This method is well-established in the literature [e.g. Rex et al., Alcohol Clin. Exp. Res. 9, 147 (1985)].
as §1, with “can be” for “are”
ALDH2 catalyzes the oxidative reaction of substrate acetaldehyde to acetic acid using NAD^+ as a cofactor. Enzymatic activity, or catalytic rate, of aldehyde dehydrogenase (ALDH2) can be measured spectrophotometrically at UV wavelength λ340 nm by the accumulation of reduced product NADH derived from NAD^+. Because compounds of formula (I) are considered to be agonists or “activators” of ALDH2 the enzymatic activity measured will exceed 100% of the baseline enzymatic activity of the enzyme in its normal activation state. As the concentration of the compounds of formula (I) decreases from 20 micromolar to 0.16 micromolar in the presence of ALDH, a decrease in the activation of enzymatic activity is observed for the wild-type ALDH2*1/*1 and the heterozygous form ALDH2*1/*2.

activity at 20 µM [%]	Structure (SMILES)
150 to 250	CNCc1ccccc1-c1ccc(OCC2CC2)c(C(=O)NCc2ccc(OC)c(F)c2)c1 [AC83]
> 250	COc1ccc(CNC(=O)c2cc(-c3ncccc3CO)ccc2OC(C)C)cc1F [AC102]
100 to 150	COc1ccc(CNC(=O)c2cc(-c3ccccc3C(=O)O)cnc2OCC2CC2)cc1F [AC75]
100 to 150	CC(C)(C)c1ccc(CNC(=O)c2cc(-c3ccccc3CO)cnc2OCC2CC2)cc1 [AC50]
150 to 250	O=C(NCc1ccc(Cl)c(Cl)c1)c1cc(-c2ccccc2CO)cnc1OCC1CC1 [AC54]
150 to 250	O=C(NCc1ccc2c(c1)OCO2)c1cc(-c2ncccc2CO)ccc1OCC1CC1 [AC43]
100 to 150	O=C(NCc1ccccc1)c1cc(-c2ccccc2CO)cnc1OCC1CC1 [AC55]
150 to 250	COc1ccc(CNC(=O)c2cc(-c3ncccc3CO)ccc2NCC2CC2)cc1F [AC42]
100 to 150	COc1ccc(CNC(=O)c2cc(-c3ccccc3/C=C/C(C)=O)cnc2OCC2CC2)cc1F [AC77]
100 to 150	COc1ccc(CNC(=O)c2cc(-c3ccccc3O)ccc2OCC2CC2)cc1F [AC82]
150 to 250	COc1ccc(CNC(=O)c2cc(-c3ncccc3CO)ccc2OC2CCC2)cc1F [AC106]
150 to 250	COc1ccc(CNC(=O)c2cc(-c3nc[nH]c3CO)ccc2OCC2CC2)cc1F [AC38]
150 to 250	COc1c(F)cc(CNC(=O)c2cc(-c3ncccc3CO)ccc2OCC2CC2)cc1Cl [AC147]
100 to 150	COc1ccc(CNC(=O)c2cc(-c3ccccc3CCO)cnc2OCC2CC2)cc1F [AC92]
100 to 150	COc1ccc(CNC(=O)c2cc(-c3ccccc3C(=O)O)ccc2OCC2CC2)cc1F [AC85]
150 to 250	COc1ccc(CNC(=O)c2cc(-c3ncccc3CO)ccc2OCC2CC2)cc1OC [AC44]
150 to 250	CCNCc1ccccc1-c1ccc(OCC2CC2)c(C(=O)NCc2ccc(OC)c(F)c2)c1 [AC84]
100 to 150	COc1ccc(CNC(=O)c2cc(-c3ccccc3OC)cnc2OCC2CC2)cc1F [AC74]
100 to 150	Cc1ccc(CNC(=O)c2cc(-c3ccccc3CO)cnc2OCC2CC2)cc1 [AC48]
> 250	COc1ccc(CNC(=O)c2cc(-c3cnccc3CO)ccc2OC(C)C)cc1F [AC101]
100 to 150	COc1ccc(CNC(=O)c2cc(-c3ccccc3/C=N/O)cnc2OCC2CC2)cc1F [AC90]
100 to 150	COc1ccc(CNC(=O)c2cc(-c3cnccc3CO)ccc2O)cc1F [AC93]
100 to 150	COc1ccc(CNC(=O)c2cc(-c3ccccc3CCC(C)=O)cnc2OCC2CC2)cc1F [AC81]

activity at 20 µM [%]	Structure (SMILES)
100 to 150	O=C(NCc1cc2c(cc1Cl)OCO2)c1cc(-c2ncccc2CO)ccc1OCC1CC1 [AC46]
> 250	[2H]C([2H])([2H])Oc1ccc(CNC(=O)c2cc(-c3ncccc3CO)ccc2OC([2H])([2H])C2CC2)cc1F [AC159]
> 250	[2H]C([2H])([2H])Oc1ccc(CNC(=O)c2cc(-c3ncccc3CO)ccc2OCC2CC2)cc1F [AC153]
150 to 250	CCCOc1ccc(-c2ncccc2CO)cc1C(=O)NCc1ccc(OC)c(F)c1 [AC100]
100 to 150	COc1ccc(CNC(=O)c2cc(-c3ccccc3OC)ccc2OCC2CC2)cc1F [AC78]
> 250	COc1ccc(CNC(=O)c2cc(-c3ncccc3CO)ccc2OC2CCCCCC2)cc1F [AC164]
150 to 250	COc1ccc(CNC(=O)c2cc(-c3cnccc3CO)ccc2OC)cc1F [AC95]
> 250	[2H]C(O)c1cccnc1-c1ccc(OCC2CC2)c(C(=O)NCc2ccc(OC([2H])([2H])[2H])c(F)c2)c1 (centres unmarked) [AC157]
> 250	COc1ccc(CNC(=O)c2cc(-c3c[nH]nc3CO)ccc2OCC2CC2)cc1F [AC30]
100 to 150	COc1ccc(CNC(=O)c2cc(-c3ncccc3CO)ccc2O)cc1F [AC94]
100 to 150	O=C(NCc1ccc(Cl)cc1)c1cc(-c2ccccc2CO)cnc1OCC1CC1 [AC52]
> 250	COc1ccc(CNC(=O)c2cc(-c3ncccc3CO)ccc2OC2CCCCC2)cc1F [AC110]
100 to 150	CNCc1ccccc1-c1cnc(OCC2CC2)c(C(=O)NCc2ccc(OC)c(F)c2)c1 [AC70]
150 to 250	COc1ccc(CNC(=O)c2cc(-c3ncccc3CO)ccc2OC2CC2)cc1F [AC104]
100 to 150	COc1ccc(CNC(=O)c2cc(-c3ccccc3C(=O)N(C)C)cnc2OCC2CC2)cc1F [AC79]
150 to 250	CCCOc1ccc(-c2cnccc2CO)cc1C(=O)NCc1ccc(OC)c(F)c1 [AC99]
150 to 250	COc1ccc(CNC(=O)c2cc(-c3cn(C)nc3CO)ccc2OCC2CC2)cc1F [AC39]
150 to 250	COc1ccc(CNC(=O)c2cc(-c3ncccc3CO)ccc2OCC2CCCCC2)cc1F [AC163]
> 250	COc1ccc(CNC(=O)c2cc(-c3ncccc3CO)ccc2OC2CCCC2)cc1F [AC108]
150 to 250	COc1c(F)cc(CNC(=O)c2cc(-c3ncccc3CO)ccc2OCC2CC2)cc1F [AC145]
100 to 150	O=C(NCc1ccc(C(F)(F)F)cc1F)c1cc(-c2ccccc2CO)cnc1OCC1CC1 [AC51]
> 250	COc1ccc(CNC(=O)c2cc(-c3cnccc3CO)ccc2OCC(C)C)cc1F [AC111]
150 to 250	COc1ccc(CNC(=O)c2cc(-c3cnccc3CO)ccc2OC2CC2)cc1F [AC103]

activity at 20 µM [%]	Structure (SMILES)
100 to 150	COc1ccc(CNC(=O)c2cc(-c3n[nH]cc3CO)cnc2OCC2CC2)cc1F [AC40]
100 to 150	O=C(NCc1cc(Cl)c2c(c1)OCO2)c1cc(-c2ncccc2CO)ccc1OCC1CC1 [AC45]
> 250	COc1cc(F)c(CNC(=O)c2cc(-c3ncccc3CO)ccc2OCC2CC2)cc1F [AC146]
100 to 150	O=C(NCc1ccc(C(F)(F)F)cc1)c1cc(-c2ccccc2CO)cnc1OCC1CC1 [AC49]
> 250	[2H]C(O)c1cccnc1-c1ccc(OCC2CC2)c(C(=O)NCc2ccc(OC)c(F)c2)c1 (centres unmarked) [AC152]
> 250	COc1ccc(CNC(=O)c2cc(-c3cnn(C)c3CO)ccc2OCC2CC2)cc1F [AC33]
> 250	COc1ccc(CNC(=O)c2cc(-c3cnccc3CO)ccc2OC2CCCC2)cc1F [AC107]
> 250	COc1ccc(CNC(=O)c2cc(-c3ncccc3CO)ccc2OCC2CCCC2)cc1F [AC166]
150 to 250	COc1ccc(CNC(=O)c2cc(-c3ncccc3CO)ccc2OC2CCCCCCC2)cc1F [AC165]
150 to 250	COc1ccc(CNC(=O)c2cc(-c3ncccc3CO)ccc2OCC2CC2)c(C)c1F [AC150]
100 to 150	O=C(NCc1ccc(F)cc1)c1cc(-c2ccccc2CO)cnc1OCC1CC1 [AC53]
100 to 150	COc1ccc(CNC(=O)c2cc(-c3nocc3CO)cnc2OCC2CC2)cc1F [AC41]
100 to 150	COc1ccc(CNC(=O)c2cc(-c3ccccc3C(C)O)cnc2OCC2CC2)cc1F (centres unmarked) [AC89]
100 to 150	COc1ccc(CNC(=O)c2cc(-c3ccccc3C(N)=O)cnc2OCC2CC2)cc1F [AC91]
100 to 150	CCNC(=O)c1ccccc1-c1cnc(OCC2CC2)c(C(=O)NCc2ccc(OC)c(F)c2)c1 [AC80]
150 to 250	COc1ccc(CNC(=O)c2cc(-c3ncccc3CO)ccc2OC)cc1F [AC96]
> 250	COc1ccc(CNC(=O)c2cc(-c3cnccc3CO)ccc2OC2CCCCC2)cc1F [AC109]
150 to 250	CCOc1ccc(-c2cnccc2CO)cc1C(=O)NCc1ccc(OC)c(F)c1 [AC97]
150 to 250	COc1ccc(CNC(=O)c2cc(-c3cnccc3CO)ccc2OC2CCC2)cc1F [AC105]
150 to 250	CCOc1ccc(-c2ncccc2CO)cc1C(=O)NCc1ccc(OC)c(F)c1 [AC98]
150 to 250	COc1cc(OC)c(CNC(=O)c2cc(-c3ncccc3CO)ccc2OCC2CC2)cc1F [AC148]
100 to 150	COc1ccc(CNC(=O)c2cc(-c3ccccc3CN(C)C)cnc2OCC2CC2)cc1F [AC76]
